# Test: Solubility of active ingredients in solvents
structure (smiles),measurement,setting,value
"CCc1cc(C)cc(CC)c1-c1c(OC(=O)C(C)(C)C)n2n(c1=O)CCOCC2 [pinoxaden, 8-(2,6-diethyl-4-methylphenyl)-1,2,4,5-tetrahydro-7-oxo-7H-pyrazolo[1,2-d][1,4,5]oxadiazepin-9-yl 2,2-dimethylpropionate]","Solvent quality of 1,2-propylene carbonate for the active ingredient","1,2-propylene carbonate",only a moderately good solvent
same,Solvent quality of tetrahydrofurfuryl alcohol (THFA) for the active ingredient,THFA,excellent solvent
same,Solvent quality of benzyl alcohol for the active ingredient,benzyl alcohol,excellent solvent

# — patent publication US10314305B2, “Liquid agrochemical compositions comprising a polymeric thickener and an alcohol-containing solvent system, and liquid herbicidal compositions having an alcohol-containing solvent system” (Syngenta Participations AG, priority 2012, dated 2019)
